Assay [1] has as its target T1, cardiac myofibrils (myosin ATPase).
T1 construct: frozen myofibril pellets obtained from cardiac tissue; from tissue
The assay can be described thus: Cardiac Myofibril ATPase Assay (counter screen). Format: biochemical. As to conditions: myofibrils 1.0 mg/mL, KCl omitted. The protocol: (§1) Overview: Myosin ATPase activity is assessed by using a coupled reaction system, in which ADP generated by the myosin ATPase function is coupled to the disappearance of NADH through the pyruvate kinase/lactate dehydrogenase (PK-LDH) system. ATPase activity produces ADP, which is used as a substrate for PK to produce pyruvate and regenerate ATP. The pyruvate is then used as a substrate by LDH to oxidize NADH to NAD+. The rate of the reaction is monitored through the time-dependent disappearance of NADH using absorbance at 340 nm. Inhibition of ATPase activity by the assayed compounds is indicated by a reduced rate of NADH loss, relative to vehicle-treated controls, over the experimental time window. To assess the selectivity of the assayed compounds for skeletal myofibrils, the compounds are counter-screened in cardiac myofibrils.
Example 13: Cardiac Myofibril ATPase Assay
Following example 11, the counter screen was done using frozen myofibril pellets obtained from cardiac tissue. The assay was done in the same manner as above, with the following notable exceptions: the final well concentration of myofibrils was 1.0 mg/mL and KCl was omitted from the recipe.
Compounds of Table 1 to 3 were tested, and results of the assays appear in Tables 5a-5c herein. A=IC50 is less than or equal to 10 μM; B=IC50 is greater than 10 μM and less than 100 μM; C=IC50 is greater than 100 μM; and […].
A general note: A counterscreen serves to expose hits that act by an unwanted route or on another target.

In assay [2] the target is skeletal myofibrils (myosin ATPase). Put plainly: Skeletal Myofibril ATPase Assay. Type of assay: biochemical. The method, then: FIG. 7 depicts the buffer preparation procedures of Buffer A and Buffer B for the skeletal myofibril ATPase assay described in Example 12. Buffers were stored on ice until use.
Example 12: Skeletal Myofibril ATPase Assay
as §1
Materials: The following stock solutions and reagents were used in the Skeletal Myofibril ATPase Assay:
Stock Solutions of pCa buffer. Combine PIPES, CaCl2, and EGTA solutions with 70 mL of water. Adjust pH to 7.0 and bring final volume to 100 mL.
Skeletal Myofibril ATPase Assay Procedure: BSA, ATP, NADH, PEP, and DTT solutions were thawed at room temperature, then transferred to ice. Pellet-frozen myofibrils were transferred with approximately twice the required volume into a sufficiently large tube and capped. Myofibrils were thawed by rolling in a water bath for approximately 15 min at room temperature and cooled on ice. Buffers A and B were prepared by adjusting volumes as necessary for required number of wells and stored on ice. 0.5 μL of the compounds to be assayed were added into wells. 25 μL of Buffer A was dispensed into the wells, followed by 25 μL of Buffer B. The wells were measured for absorbance at 340 nm, using a kinetic protocol in which the wells are read every 1.5-2 min for 45 min. The slope of the data was approximated by subtracting the minimum absorbance value from the maximum value for each well. This was accomplished either in the SoftMax Pro software or in a spreadsheet program such as Excel. Using GraphPad Prism 8.0, the data was normalized by assigning a value of 100% to the 1% DMSO vehicle wells. Typically, a normalized 0% value was simply assigned to a (Max−Min) value of 0. The normalized data was fit to a Four Parameter Logistic sigmoidal equation, constraining the bottom to be 0 or greater. Compounds of Table 1, 2, and 3 were tested and results of the assay appear in Tables 4a-4c. A=IC50 is less than or equal to 10 μM; B=IC50 is greater than 10 μM and less than 100 μM; C=IC50 is greater than 100 μM.

T1 sequence (P12883 whole entry): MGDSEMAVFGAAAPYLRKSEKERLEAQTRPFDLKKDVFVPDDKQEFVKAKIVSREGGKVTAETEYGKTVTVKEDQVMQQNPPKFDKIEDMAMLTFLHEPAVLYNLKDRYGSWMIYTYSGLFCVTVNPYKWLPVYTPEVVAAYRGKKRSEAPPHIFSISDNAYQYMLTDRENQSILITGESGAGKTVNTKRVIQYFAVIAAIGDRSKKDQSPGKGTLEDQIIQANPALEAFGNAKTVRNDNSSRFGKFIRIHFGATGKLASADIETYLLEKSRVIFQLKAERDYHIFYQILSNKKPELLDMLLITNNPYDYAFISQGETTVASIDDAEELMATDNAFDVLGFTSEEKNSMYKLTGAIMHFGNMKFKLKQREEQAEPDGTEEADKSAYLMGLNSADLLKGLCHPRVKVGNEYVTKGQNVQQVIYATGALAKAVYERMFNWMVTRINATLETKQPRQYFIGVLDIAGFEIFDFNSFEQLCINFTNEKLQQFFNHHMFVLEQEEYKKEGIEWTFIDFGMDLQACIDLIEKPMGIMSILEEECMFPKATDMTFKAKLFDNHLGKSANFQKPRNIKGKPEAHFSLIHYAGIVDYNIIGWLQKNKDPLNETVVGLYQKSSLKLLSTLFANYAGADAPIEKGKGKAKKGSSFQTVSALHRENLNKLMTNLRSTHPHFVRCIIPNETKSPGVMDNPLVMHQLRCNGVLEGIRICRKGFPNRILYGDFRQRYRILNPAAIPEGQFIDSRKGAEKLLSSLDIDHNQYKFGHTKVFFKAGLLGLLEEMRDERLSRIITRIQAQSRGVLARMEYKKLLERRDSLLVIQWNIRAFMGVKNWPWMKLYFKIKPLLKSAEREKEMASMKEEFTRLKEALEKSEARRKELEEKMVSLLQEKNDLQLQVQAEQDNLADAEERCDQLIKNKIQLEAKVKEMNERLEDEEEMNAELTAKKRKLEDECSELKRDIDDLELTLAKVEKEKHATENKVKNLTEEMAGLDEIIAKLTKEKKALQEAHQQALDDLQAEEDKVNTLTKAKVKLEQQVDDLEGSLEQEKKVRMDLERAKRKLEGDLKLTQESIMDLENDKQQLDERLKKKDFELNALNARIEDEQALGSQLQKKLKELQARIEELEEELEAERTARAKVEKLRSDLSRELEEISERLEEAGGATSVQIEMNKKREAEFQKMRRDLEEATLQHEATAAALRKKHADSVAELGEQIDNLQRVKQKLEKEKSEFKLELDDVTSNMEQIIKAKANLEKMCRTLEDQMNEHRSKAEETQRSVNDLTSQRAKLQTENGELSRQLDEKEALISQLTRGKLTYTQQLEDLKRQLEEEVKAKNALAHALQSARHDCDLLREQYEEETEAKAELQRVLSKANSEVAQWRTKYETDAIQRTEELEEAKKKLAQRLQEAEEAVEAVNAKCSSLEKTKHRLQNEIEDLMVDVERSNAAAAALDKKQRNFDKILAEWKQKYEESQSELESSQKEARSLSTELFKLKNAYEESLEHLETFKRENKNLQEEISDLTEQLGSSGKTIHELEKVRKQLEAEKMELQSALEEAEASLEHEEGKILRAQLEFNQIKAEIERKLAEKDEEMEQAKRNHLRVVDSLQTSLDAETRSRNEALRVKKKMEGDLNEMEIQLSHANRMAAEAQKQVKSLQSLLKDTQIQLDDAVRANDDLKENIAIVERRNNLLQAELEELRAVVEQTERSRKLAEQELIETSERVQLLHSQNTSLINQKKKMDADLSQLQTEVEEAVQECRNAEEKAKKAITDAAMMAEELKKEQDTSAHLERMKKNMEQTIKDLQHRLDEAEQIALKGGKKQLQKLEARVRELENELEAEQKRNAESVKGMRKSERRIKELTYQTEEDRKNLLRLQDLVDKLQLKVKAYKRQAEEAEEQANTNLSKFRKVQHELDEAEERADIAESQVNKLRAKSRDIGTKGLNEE
T1 sequence (P08590 whole entry partner): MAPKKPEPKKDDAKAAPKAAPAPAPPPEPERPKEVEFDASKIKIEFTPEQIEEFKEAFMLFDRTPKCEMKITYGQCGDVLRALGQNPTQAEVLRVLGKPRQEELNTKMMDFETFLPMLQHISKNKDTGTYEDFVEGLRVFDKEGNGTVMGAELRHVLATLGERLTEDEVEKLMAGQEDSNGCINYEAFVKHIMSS
T1 sequence (P10916 whole entry partner): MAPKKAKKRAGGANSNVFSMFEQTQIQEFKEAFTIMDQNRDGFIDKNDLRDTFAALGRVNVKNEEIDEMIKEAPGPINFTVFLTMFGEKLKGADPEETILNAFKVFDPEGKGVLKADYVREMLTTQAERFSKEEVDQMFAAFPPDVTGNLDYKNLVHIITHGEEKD

A word on the IC50: it is the point on the concentration scale where inhibition reaches its midpoint. Low readings indicate inhibition by little substance, high ones a need for much substance. With `COc1ccc(-c2ccc(=O)n(CC(=O)NCCc3ccc(OC)c(OC)c3)n2)cc1` [IIIb-51, N-(3,4-dimethoxyphenethyl)-2-(3-(4-methoxyphenyl)-6-oxopyridazin-1(6H)-yl)acetamide], the IC50 in assay [1] (Table 5C) and in assay [2] (Table 4C) was > 100 µM in each case.

`COc1ccc(-c2ccc(=O)n(CC(=O)NC3CCCCC3)n2)c(F)c1` [IIIb-60, N-cyclohexyl-2-(3-(2-fluoro-4-methoxyphenyl)-6-oxopyridazin-1(6H)-yl)acetamide]: the half-inhibitory concentration (IC50) in assay [1] (Table 5C) and in assay [2] (Table 4C) was > 100 µM throughout.

`O=C(Cn1nc(-c2ccc(NC34CC(C3)C4)nc2)ccc1=O)NC1CCC1` [Compound I-54, 2-(3-(6-(bicyclo[1.1.1]pentan-1-ylamino)pyridin-3-yl)-6-oxopyridazin-1(6H)-yl)-N-cyclobutylacetamide]: the IC50 in assay [1] (Table 5A) was > 100 µM; in assay [2] (Table 4A), < 10 µM.

Turning to `COc1ccc(-c2ccc(=O)n(CC(=O)NCCc3ccccc3)n2)cc1` [IIIa-5, 2-(3-(4-methoxyphenyl)-6-oxopyridazin-1(6H)-yl)-N-phenethylacetamide], the IC50 in assay [1] (Table 5C) is > 100 µM; in assay [2] (Table 4C), < 10 µM.

For `O=C(Cn1nc(-c2ccccc2)ccc1=O)NC1CC1` [IIIc-65, N-cyclopropyl-2-(6-oxo-3-phenylpyridazin-1(6H)-yl)acetamide], the half-maximal inhibitory concentration (IC50) in assay [1] (Table 5C) and in assay [2] (Table 4C) was > 100 µM each time.

Consider `O=C(Cn1nc(-c2ccc(OC(F)F)nc2)ccc1=O)NC12CC(C1)C2` [Compound I-11, N-(bicyclo[1.1.1]pentan-1-yl)-2-(3-(6-(difluoromethoxy)pyridin-3-yl)-6-oxopyridazin-1(6H)-yl)acetamide], for which the IC50 in assay [1] (Table 5A) was > 100 µM; in assay [2] (Table 4A) it was 10 to 100 µM.

As for `COc1ccc(-c2ccc(=O)n(CC(=O)NC(C)(C)c3ccccc3)n2)cc1` [IIIa-9, 2-(3-(4-methoxyphenyl)-6-oxopyridazin-1(6H)-yl)-N-(2-phenylpropan-2-yl)acetamide], the IC50 in assay [1] (Table 5C) is > 100 µM; in assay [2] (Table 4C), < 10 µM.

Consider `COc1ccc(-c2ccc(=O)n(CC(=O)NCc3ccccc3F)n2)cc1` [IIIb-38, N-(2-fluorobenzyl)-2-(3-(4-methoxyphenyl)-6-oxopyridazin-1(6H)-yl)acetamide], for which the concentration for half-maximal inhibition (IC50) in assay [1] (Table 5C) and in assay [2] (Table 4C) was > 100 µM throughout.

In the case of `COc1ccc(-c2ccc(=O)n(CC(=O)NCc3ccccc3Cl)n2)cc1OC` [IIIb-40, N-(2-chlorobenzyl)-2-(3-(3,4-dimethoxyphenyl)-6-oxopyridazin-1(6H)-yl)acetamide], the concentration for half-maximal inhibition (IC50) in assay [1] (Table 5C) and in assay [2] (Table 4C) was > 100 µM each time.

For the compound `O=C(Cn1nc(-c2ccccc2)ccc1=O)NC1(c2ccccc2)CCC1` [IIIc-51, 2-(6-oxo-3-phenylpyridazin-1(6H)-yl)-N-(1-phenylcyclobutyl)acetamide], the IC50 in assay [1] (Table 5C) was > 100 µM; in assay [2] (Table 4C), < 10 µM.

As for `CCNC(=O)Cn1nc(-c2ccc(Oc3ccc(F)cc3)nc2)ccc1=O` [Compound I-21, N-ethyl-2-(3-(6-(4-fluorophenoxy)pyridin-3-yl)-6-oxopyridazin-1(6H)-yl)acetamide], the IC50 in assay [1] (Table 5A) was > 100 µM; in assay [2] (Table 4A), 10 to 100 µM.

Turning to `CCNC(=O)Cn1nc(-c2ccc(OC(F)F)[n+]([O-])c2)ccc1=O` [Compound I-65, 2-(difluoromethoxy)-5-(1-(2-(ethylamino)-2-oxoethyl)-6-oxo-1,6-dihydropyridazin-3-yl)pyridine 1-oxide], the IC50 in assay [1] (Table 5A) and in assay [2] (Table 4A) was > 100 µM in each case.

Regarding `COc1ccc(-c2ccc(=O)n(CC(=O)Nc3ccc4c(c3)OCO4)n2)c(F)c1` [IIIb-33, N-(benzo[d][1,3]dioxol-5-yl)-2-(3-(2-fluoro-4-methoxyphenyl)-6-oxopyridazin-1(6H)-yl)acetamide], the 50% inhibitory concentration (IC50) in assay [1] (Table 5C) was > 100 µM; in assay [2] (Table 4C), 10 to 100 µM.

For the compound `O=C(Cn1nc(-c2ccccc2)ccc1=O)NCCC1=CCCCC1` [IIIc-48, N-(2-(cyclohex-1-en-1-yl)ethyl)-2-(6-oxo-3-phenylpyridazin-1(6H)-yl)acetamide], the figures for the concentration for half-maximal inhibition (IC50) in assay [1] (Table 5C) and in assay [2] (Table 4C) were > 100 µM and < 10 µM, respectively.

For `CCNC(=O)Cn1nc(-c2cnc(Nc3ccc(Cl)cc3)nc2)ccc1=O` [Compound I-1, 2-(3-(2-((4-chlorophenyl)amino)pyrimidin-5-yl)-6-oxopyridazin-1(6H)-yl)-N-ethylacetamide], the results for the IC50 in assay [1] (Table 5A) and in assay [2] (Table 4A) were > 100 µM and < 10 µM, respectively.

Take `CCOc1ccc(-c2ccc(=O)n(CC(=O)NCc3ccccc3Cl)n2)cc1` [IIIa-1, N-(2-chlorobenzyl)-2-(3-(4-ethoxyphenyl)-6-oxopyridazin-1(6H)-yl)acetamide]: the IC50 is > 100 µM in assay [1] (Table 5C) and < 10 µM in assay [2] (Table 4C).

As to `CCNC(=O)Cn1nc(-c2cnc(Nc3ccc(F)cc3)nc2)ccc1=O` [Compound I-2, N-ethyl-2-(3-(2-((4-fluorophenyl)amino)pyrimidin-5-yl)-6-oxopyridazin-1(6H)-yl)acetamide], the IC50 in assay [1] (Table 5A) is > 100 µM; in assay [2] (Table 4A) it was < 10 µM.

In the case of `CC[C@H](C)NC(=O)Cn1nc(-c2ccc(C)cc2)ccc1=O` [IIIc-2, (S)-N-(sec-butyl)-2-(6-oxo-3-(p-tolyl)pyridazin-1(6H)-yl)acetamide], the IC50 in assay [1] (Table 5C) was > 100 µM; in assay [2] (Table 4C) it was < 10 µM.

`O=C(Cn1nc(-c2cnc(NC34CC(C3)C4)nc2)ccc1=O)NC1CCC1` [Compound I-50, 2-(3-(2-(bicyclo[1.1.1]pentan-1-ylamino)pyrimidin-5-yl)-6-oxopyridazin-1(6H)-yl)-N-cyclobutyl-acetamide]: the half-maximal inhibitory concentration (IC50) in assay [1] (Table 5A) is > 100 µM; in assay [2] (Table 4A), < 10 µM.

In the case of `O=C(Cn1nc(-c2ccccc2)ccc1=O)Nc1ccc(Cl)cc1Cl` [IIIc-54, N-(2,4-dichlorophenyl)-2-(6-oxo-3-phenylpyridazin-1(6H)-yl)acetamide], the IC50 in assay [1] (Table 5C) is > 100 µM; in assay [2] (Table 4C), 10 to 100 µM.

Take `Cn1nccc1CNC(=O)Cn1nc(-c2ccc(OC(F)F)nc2)ccc1=O` [Compound I-30, 2-(3-(6-(difluoromethoxy)pyridin-3-yl)-6-oxopyridazin-1(6H)-yl)-N-((1-methyl-1H-pyrazol-5-yl)methyl)acetamide]: the IC50 in assay [1] (Table 5A) and in assay [2] (Table 4A) was > 100 µM throughout.

`CC(C)NC(=O)Cn1nc(-c2ccc(OC(F)(F)F)cc2)ccc1=O` [II-4]: the IC50 in assay [1] (Table 5B) is > 100 µM; in assay [2] (Table 4B) it was < 10 µM.

Turning to `CCNC(=O)Cn1nc(-c2cnc(OCC3CC(F)(F)C3)nc2)ccc1=O` [Compound I-77, 2-(3-(2-((3,3-difluorocyclobutyl)methoxy)pyrimidin-5-yl)-6-oxopyridazin-1(6H)-yl)-N-ethylacetamide], the IC50 was > 100 µM in assay [1] (Table 5A) and 10 to 100 µM in assay [2] (Table 4A).

For `CCNC(=O)Cn1nc(-c2ccc(OC(F)F)nc2)ccc1=O` [Compound I-7, 2-(3-(6-(difluoromethoxy)pyridin-3-yl)-6-oxopyridazin-1(6H)-yl)-N-ethylacetamide], the IC50 was > 100 µM in assay [1] (Table 5A) and < 10 µM in assay [2] (Table 4A).

On to `CN(Cc1ccccc1)C(=O)Cn1nc(-c2ccc(Cl)cc2)ccc1=O` [IIIc-32, N-benzyl-2-(3-(4-chlorophenyl)-6-oxopyridazin-1(6H)-yl)-N-methylacetamide], for which the IC50 in assay [1] (Table 5C) was > 100 µM; in assay [2] (Table 4C) it was 10 to 100 µM.

Take `COc1ccc(-c2ccc(=O)n(CC(=O)NCc3ccccc3C)n2)cc1` [IIIa-16, 2-(3-(4-methoxyphenyl)-6-oxopyridazin-1(6H)-yl)-N-(2-methylbenzyl) acetamide]: the IC50 was > 100 µM in assay [1] (Table 5C) and < 10 µM in assay [2] (Table 4C).

Consider `COc1ccc(-c2ccc(=O)n(CC(=O)NCc3ccco3)n2)cc1` [IIIb-37, N-(furan-2-ylmethyl)-2-(3-(4-methoxyphenyl)-6-oxopyridazin-1(6H)-yl)acetamide], for which the IC50 was > 100 µM in assay [1] (Table 5C) and 10 to 100 µM in assay [2] (Table 4C).
